Results published in the supplement of paper PMC11061612.

What was measured:
[1] = test system: COR-L279 (Small Cell Lung Carcinoma); assay: combination Emax (second highest fraction inhibited in the dose matrix, 72 h); higher = more inhibition; extreme values may be limits of the assay
Summary of the method: (§1)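 Bliss excess equals the observed combination effect minus the expected value EA + EB − EA·EB, where EA and EB are the effects of each agent alone. Combination Emax is the second-highest inhibition within the matrix. Inhibition was scaled from CellTiter-Glo 2.0 luminescence, with 0 set by vehicle wells and 1 by blank wells, after 72 hours of two-drug dosing of cells plated in 1536-well plates.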

[2] = test system: VMRC-RCZ (Kidney Carcinoma); assay: as above
Summary of the method: as §1

[3] = test system: H9 (T-Cell Non-Hodgkin's Lymphoma); assay: Bliss excess, mean over the matrix (fraction); higher = more synergy
Summary of the method: as §1

[4] = test system: IM-95 (Gastric Carcinoma); assay: as above
Summary of the method: as §1

[5] = test system: KY821 (Acute Myeloid Leukemia); assay: as above
Summary of the method: as §1

[6] = test system: H9 (T-Cell Non-Hodgkin's Lymphoma); assay: combination Emax (second highest fraction inhibited in the dose matrix, 72 h); higher = more inhibition; extreme values may be limits of the assay
Summary of the method: as §1

[7] = test system: IM-95 (Gastric Carcinoma); assay: as above
Summary of the method: as §1

[8] = test system: KY821 (Acute Myeloid Leukemia); assay: as above
Summary of the method: as §1

Structure (SMILES)	combination Emax [1]	combination Emax [2]	further results
C[C@@H](Nc1cc(F)cc(F)c1)c1cc(C(=O)N(C)C)cc2c(=O)cc(N3CCOCC3)oc12 [AZD8186] + CC(=O)c1c(C)c2cnc(Nc3ccc(N4CCNCC4)cn3)nc2n(C2CCCC2)c1=O [Palbociclib] (first compound max 10 µM, 7x7, partner max 10 µM)	0.909	0.42	–
CN(CCO)CC[C@H](CSc1ccccc1)Nc1ccc(S(=O)(=O)NC(=O)c2ccc(N3CCC([C@@H](O)c4ccccc4-c4ccc(Cl)cc4)CC3)cc2)cc1S(=O)(=O)C(F)(F)F [AZD4320] + CC(=O)O[C@H]1C(=O)[C@@]2(C)[C@H]([C@H](OC(=O)c3ccccc3)[C@]3(O)C[C@H](OC(=O)[C@H](O)[C@@H](NC(=O)c4ccccc4)c4ccccc4)C(C)=C1C3(C)C)[C@]1(OC(C)=O)CO[C@@H]1C[C@@H]2O [Paclitaxel] (first compound max 1 µM, 7x7, partner max 3 µM)	1	0.693	–
C[C@@H](Nc1cc(F)cc(F)c1)c1cc(C(=O)N(C)C)cc2c(=O)cc(N3CCOCC3)oc12 [AZD8186] + C1CN(CCC1(C(=O)N[C@@H](CCO)C2=CC=C(C=C2)Cl)N)C3=NC=NC4=C3C=CN4 [AZD5363] (first compound max 10 µM, 7x7, partner max 10 µM)	0.679	0.386	–
N#Cc1cnc(Nc2cc(NC[C@H]3CNCCO3)c(C(F)(F)F)cn2)cn1 [SRA737] + C=CCn1c(=O)c2cnc(Nc3ccc(N4CCN(C)CC4)cc3)nc2n1-c1cccc(C(C)(C)O)n1 [AZD1775] (first compound max 10 µM, partner max 1 µM)	0.834	0.51	–
C[C@@H](Oc1cc(-c2cnn(C3CCNCC3)c2)cnc1N)c1c(Cl)ccc(F)c1Cl [Crizotinib] + CC1=C(C(=CC=C1)Cl)NC(=O)C2=CN=C(S2)NC3=CC(=NC(=N3)C)N4CCN(CC4)CCO [Dasatinib] (first compound max 10 µM, 7x7, partner max 2 µM)	0.839	0.846	–
O=C(c1cc(Cc2n[nH]c(=O)c3ccccc23)ccc1F)N1CCN(C(=O)C2CC2)CC1 [Olaparib] + COc1nnc2ccc(N3CCC(c4ccc(OCCN5CCN(C)C(=O)[C@H]5C)cc4)CC3)nn12 [AZD5153] (first compound max 10 µM, 7x7, partner max 1 µM)	0.953	0.248	–
O=C(c1cc(Cc2n[nH]c(=O)c3ccccc23)ccc1F)N1CCN(C(=O)C2CC2)CC1 [Olaparib] + CC1(C)CCC(CN2CCN(c3ccc(C(=O)NS(=O)(=O)c4ccc(NCC5CCOCC5)c([N+](=O)[O-])c4)c(Oc4cnc5[nH]ccc5c4)c3)CC2)=C(c2ccc(Cl)cc2)C1 [Venetoclax] (first compound max 10 µM, 7x7, partner max 1 µM)	0.943	0.0266	–
CS(=O)(=O)CCNCc1ccc(-c2ccc3ncnc(Nc4ccc(OCc5cccc(F)c5)c(Cl)c4)c3c2)o1 [Lapatinib] + NC1(c2ccc(-c3nc4ccn5c(=O)[nH]nc5c4cc3-c3ccccc3)cc2)CCC1 [MK-2206] (first compound max 10 µM, 7x7, partner max 10 µM)	0.978	0.408	Bliss excess [3]: -0.247; Bliss excess [4]: 0.0488; Bliss excess [5]: 0.0724; combination Emax [6]: 0.94; combination Emax [7]: 0.509; combination Emax [8]: 0.969
C[C@@H]1COCCN1c1cc(C2([S@](C)(=N)=O)CC2)nc(-c2ccnc3[nH]ccc23)n1 [AZD6738] + C1CC(C1)(C(=O)[O-])C(=O)[O-].N.N.[Pt+2] [Carboplatin] (first compound max 10 µM, 7x7, partner max 10 µM)	0.635	0.392	–
Cc1nc(-c2cn3c(n2)-c2ccc(-c4cnn(C(C)(C)C(N)=O)c4)cc2OCC3)n(C(C)C)n1 [Taselisib] + O=C(Nc1ccc2[nH]nc(-c3ccncc3)c2c1)[C@@H]1CCN(CC(=O)N2CCN(c3ccc(-c4ncccn4)cc3)CC2)C1 [SCH772984] (first compound max 10 µM, 7x7, partner max 5 µM)	0.835	0.361	–
Cc1c2c(nn1C)CSCc1cc(n(C)n1)CSc1cc(c3ccccc3c1)OCCCc1c(C(=O)O)n(C)c3c-2c(Cl)ccc13 [AZD5991] + CC(=O)O[C@H]1C(=O)[C@@]2(C)[C@H]([C@H](OC(=O)c3ccccc3)[C@]3(O)C[C@H](OC(=O)[C@H](O)[C@@H](NC(=O)c4ccccc4)c4ccccc4)C(C)=C1C3(C)C)[C@]1(OC(C)=O)CO[C@@H]1C[C@@H]2O [Paclitaxel] (first compound max 1 µM, 7x7, partner max 3 µM)	0.997	0.358	–
CC1(C)CCC(CN2CCN(c3ccc(C(=O)NS(=O)(=O)c4ccc(NCC5CCOCC5)c([N+](=O)[O-])c4)c(Oc4cnc5[nH]ccc5c4)c3)CC2)=C(c2ccc(Cl)cc2)C1 [Venetoclax] + CS(=O)(=O)CCNCc1ccc(-c2ccc3ncnc(Nc4ccc(OCc5cccc(F)c5)c(Cl)c4)c3c2)o1 [Lapatinib] (first compound max 1 µM, 7x7, partner max 10 µM)	0.911	0.155	–
O=C(c1cc(Cc2n[nH]c(=O)c3ccccc23)ccc1F)N1CCN(C(=O)C2CC2)CC1 [Olaparib] + CN(CC[C@H](CSC1=CC=CC=C1)NC2=C(C=C(C=C2)S(=O)(=O)NC(=O)C3=CC=C(C=C3)N4CCC(CC4)[C@H](C5=CC=CC=C5C6=CC=C(C=C6)Cl)O)S(=O)(=O)C(F)(F)F)CCO [AZD4320] (first compound max 10 µM, 7x7, partner max 1 µM)	0.992	0.0911	–
N#Cc1cnc(Nc2cc(NC[C@H]3CNCCO3)c(C(F)(F)F)cn2)cn1 [SRA737] + O=c1[nH]cc(F)c(=O)[nH]1 [5-Fluorouracil] (first compound max 10 µM, 7x7, partner max 20 µM)	0.821	0.354	–
C=CCn1c(=O)c2cnc(Nc3ccc(N4CCN(C)CC4)cc3)nc2n1-c1cccc(C(C)(C)O)n1 [AZD1775] + CCc1c2c(nc3ccc(O)cc13)-c1cc3c(c(=O)n1C2)COC(=O)[C@]3(O)CC [SN-38] (first compound max 1 µM, partner max 0.3 µM)	1	0.462	–
C[C@@H](Oc1cc(-c2cnn(C3CCNCC3)c2)cnc1N)c1c(Cl)ccc(F)c1Cl [Crizotinib] + Cn1cnc2c(F)c(Nc3ccc(Br)cc3Cl)c(C(=O)NOCCO)cc21 [Selumetinib] (first compound max 10 µM, 7x7, partner max 10 µM)	0.755	0.174	–
